Laboratory results reported in patent US5073559A, “2-Substituted purinone having phosphodiesterase inhibitory activity” (Smith Kline & French Laboratories, Ltd., priority 1988, dated 1991).

Tests used:
[1] = system: U46619-induced bronchoconstriction; experiment: Bronchodilatation in vivo: inhibition of U46619-induced bronchoconstriction in anaesthetised guinea-pigs; design: species or system guinea-pig (Dunkin Hartley); details: Cavia porcellus, iv; i.v. bolus; U46619 infused i.v. at 2.5 nmol/min; range over the listed Examples; read-out: BD50 (dose of compound required to reduce the U46619-induced bronchoconstriction by 50%)
Description: Male guinea-pigs of the Dunkin Hartley strain (500-600 g) were anaesthetised with Sagatal (pentobarbital sodium) (60 mg/kg). Airway resistance was measured using a modification of the classical Konzett-Rossler technique (J. Pharm. Methods, 13, 309-315, 1985). U46619 (9,11-methanoepoxy-PGH2) was infused i.v. at a rate of 2.5 nmol/min, this produced a steady state of bronchoconstriction (approximately 120% increase from basal airway resistance). The compound under test was administered by i.v. bolus injection, and the subsequent peak inhibition of bronchoconstriction recorded.
The dose of compound required to reduce the U46619-induced bronchoconstriction by 50% is given as the BD50. The compounds of Examples 2, 3, 6, 11, 14 and 15 had BD50 values in the range 0.58-7.24 μmol/kg.

[2] = molecular target: calmodulin insensitive cyclic GMP phosphodiesterase (Homo sapiens, UniProt O76074); experiment: Inhibition of calmodulin insensitive cyclic GMP phosphodiesterase; type: biochemical; details: procedure of European Patent Application No. 293063; range over the listed Examples; read-out: IC50 (concentration of inhibitor required for 50% inhibition of enzyme activity)
Description: The activity of the compounds of the present invention as inhibitors of a calmodulin insensitive cyclic GMP phosphodiesterase was measured using the procedure described in European Patent Application No. 293063. […] The compounds of the present invention have the advantage that the are selective in not inhibiting cyclic AMP phosphodiesterase (type III)

[3] = system: ovalbumen antigen challenge bronchoconstrictor response; experiment: Anti-allergic activity: inhibition of ovalbumen-induced bronchoconstrictor response in sensitised guinea-pigs; type: in vivo, guinea-pig (Duncan Hartley); details: ovalbumen 1 mg/kg i.v.
Description: Male Duncan Hartley guinea-pigs (250-300 g) were sensitised to ovalbumen by i.p. injection of 2 ml of 50mg.ml^-1 i.p. and 0.2 ml s.c. Three weeks later they were anaesthetised with 60 mg.kg^-1 sodium pentobarbitone. The trachea was cannulated and the animal respired at a rate of 40 breaths per minute and at an initial tracheal inflation pressure of 16 mmHg. Tracheal inflation pressure was measured by a transducer connected to a side arm of the respiration circuit. The carotid artery was cannulated for the measurement of blood pressure and the signal was used to trigger an instantaneous rate meter. A jugular vein was cannulated for the administration of drug and allergen. After surgery the animals were allowed to stabilise and the drug was administered i.v. as a bolus. Following this, ovalbumen 1 mg.kg^-1 was injected i.v. as the antigen challenge either 2, 15 or 30 minutes following drug treatment and the peak bronchoconstrictor response recorded. For the control group ovalbumen only was given. One ovalbumen challenge per guinea-pig was used and n=6 for each time point. The percentage increase in tracheal inflation pressure was calculated. The following results indicating an anti-allergic activity were obtained.

IC50 [2] [nM]	Structure (SMILES)	ED50 [1] [µmol/kg]	also measured
	CCCOc1ccc([N+](=O)[O-])cc1-c1nc2nc[nH]c2c(=O)[nH]1 [Example 11, 2-(2-Propoxy-5-nitrophenyl)purin-6-one]	0.58 to 7.24	
310 to 4800	CCCOc1ccccc1-c1nc2nc(S)[nH]c2c(=O)[nH]1 [Example 8, 2-(2-Propoxyphenyl)-8-mercaptopurin-6-one]		
	CCCOc1ccc(Cl)cc1-c1nc2nc[nH]c2c(=O)[nH]1 [Example 15, 2-(2-Propoxy-5-chlorophenyl)purin-6-one]	0.58 to 7.24	% Inhibition of Control Bronchoconstrictor Response 30 min after drug administration ([3]; dose 16.6 μmol/kg i.v.): 30%
310 to 4800	CCCOc1ccccc1-c1nc2nc(-c3ccccc3)[nH]c2c(=O)[nH]1 [Example 6, 2-(2-Propoxyphenyl)-8-phenylpurin-6-one]	0.58 to 7.24	
	CCCOc1ccc(OC)cc1-c1nc2nc[nH]c2c(=O)[nH]1 [Example 14, 2-(2-Propoxy-5-methoxyphenyl)purin-6-one]	0.58 to 7.24	
310 to 4800	CCCOc1ccccc1-c1nc2nc(SC)[nH]c2c(=O)[nH]1 [Example 9, 2-(2-Propoxyphenyl)-8-methylthiopurin-6-one]		
	O=c1[nH]c2nc(-c3ccccc3OCC3CC3)[nH]c(=O)c2[nH]1 [Example 3, 2-(2-Cyclopropylmethoxyphenyl)purin-6,8-dione]	0.58 to 7.24	% Inhibition of Control Bronchoconstrictor Response 30 min after drug administration ([3]; dose 18.4 μmol/kg i.v.): 24%
	O=c1[nH]c(-c2ccccc2OCC2CC2)nc2nc[nH]c12 [Example 2, 2-(2-Cyclopropylmethoxyphenyl)purin-6-one]	0.58 to 7.24	
